Literature values as cited in Sander's compilation of Henry's law constants (doi:10.1016/j.chemosphere.2021.129858).

Assay: Henry solubility constant Hcp at 298.15 K (mol/(m3 Pa))
Conditions: reference: Schwardt et al. (2021); cited value

Point of comparison: `Cc1ccccc1` [methylbenzene], “Henry solubility constant Hcp” value 0.0016. Against it:
- ClCC(Cl)(Cl)Cl [1,1,1,2-tetrachloroethane] — higher, 0.005
- CC(Cl)(Cl)Cl [1,1,1-trichloroethane] — lower, 0.0006
- ClC(Cl)C(Cl)Cl [1,1,2,2-tetrachloroethane] — higher, 0.023
- ClCC(Cl)Cl [1,1,2-trichloroethane] — higher, 0.011
- C=C(Cl)Cl [1,1-dichloroethene] — lower, 0.00037
- CC(Cl)CCl (stereo not drawn) [1,2-dichloropropane] — higher, 0.0037
- Cc1ccccc1C [1,2-dimethylbenzene] — higher, 0.002
- Clc1cccc(Cl)c1 [1,3-dichlorobenzene] — higher, 0.0031
- Cc1cccc(C)c1 [1,3-dimethylbenzene] — lower, 0.0014
- Clc1ccc(Cl)cc1 [1,4-dichlorobenzene] — higher, 0.0032
- Cc1ccc(C)cc1 [1,4-dimethylbenzene] — lower, 0.0015
- Cc1ccc(Cl)cc1Cl [2,4-dichloro-1-methylbenzene] — higher, 0.0027
- c1cc2c3c(cccc3c1)CC2 [acenaphthene] — higher, 0.054
- c1ccc2cc3ccccc3cc2c1 [anthracene] — higher, 0.18
- c1ccccc1 [benzene] — higher, 0.0018
- c1ccc2c(c1)-c1cccc3cccc-2c13 [benzo[jk]fluorene] — higher, 0.58
- Clc1ccccc1 [chlorobenzene] — higher, 0.0024
- CCCl [chloroethane] — lower, 0.00081
- C=CCl [chloroethene] — lower, 0.00041
- ClCCl [dichloromethane] — higher, 0.0039
- CCc1ccccc1 [ethylbenzene] — lower, 0.0014
- c1ccc2ccccc2c1 [naphthalene] — higher, 0.021
- c1ccc2c(c1)ccc1ccccc12 [phenanthrene] — higher, 0.21
- CCCc1ccccc1 [propylbenzene] — lower, 0.0009
- ClC(Cl)=C(Cl)Cl [tetrachloroethene] — lower, 0.00057
- ClC(Cl)(Cl)Cl [tetrachloromethane] — lower, 0.00034
- ClC=C(Cl)Cl [trichloroethene] — lower, 0.0011
